Paper PMC6222422, “Synthesis and Biological Evaluation of Novel Indole-Derived Thioureas” (Molecules : A Journal of Synthetic Chemistry and Natural …, 2018)

Key:
BVDV = test: microbe, parasite or virus in culture; type: cell-based, bovine viral diarrhoea virus; conditions: for EC50: Bovine viral diarrhea virus isolates and strains, MDBK, in Bos taurus, read-out: BVDV EC50
YFV = test: microbe, parasite or virus in culture; type: cell-based; conditions: Yellow fever virus, BHK, read-out: YFV EC50
CV-B5 = test: microbe, parasite or virus in culture; type: cell-based, coxsackievirus B5; conditions: Enterovirus B, CVB5, Vero 76, read-out: CV-B5 EC50
Sb-1 = test: microbe, parasite or virus in culture; type: cell-based, poliovirus type-1; conditions: Enterovirus C, Vero 76, read-out: Sb-1 EC50
Reo-1 = test: microbe, parasite or virus in culture; type: cell-based, reovirus type-1; conditions: Reovirus sp., BHK, read-out: Reo-1 EC50
RSV = test: microbe, parasite or virus in culture; type: cell-based, human respiratory syncytial virus; conditions: human respiratory syncytial virus, Vero 76, read-out: RSV EC50
VSV = test: microbe, parasite or virus in culture; type: cell-based; conditions: Vesicular stomatitis virus, Vero 76, read-out: VSV EC50
VV = test: microbe, parasite or virus in culture; type: cell-based; conditions: Orthopoxvirus vaccinia, Vero 76, read-out: VV EC50
HSV-1 = test: microbe, parasite or virus in culture; type: cell-based, human herpes 1; conditions: Human alphaherpesvirus 1, Vero 76, read-out: HSV-1 EC50
in vitro [1] = conditions: human
in vitro [2] = conditions: cattle (Bos taurus)
in vitro [3] = conditions: Syrian hamster (Mesocricetus auratus)
in vitro [4] = conditions: African green monkey (Cercopithecus aethiops)
HIV-1 = test: microbe, parasite or virus in culture; conditions: Human immunodeficiency virus 1, MT4, read-out: HIV-1 EC50

SMILES | activity against BVDV (in words) (BVDV) | EC50 (BVDV) | EC50 (YFV) | EC50 (CV-B5) | EC50 (Sb-1) | EC50 (Reo-1) | EC50 (RSV) | EC50 (VSV) | EC50 (VV) | EC50 (HSV-1) | melting point | CC50 (in vitro [1]) | CC50 (in vitro [2]) | CC50 (in vitro [3]) | CC50 (in vitro [4]) | EC50 (HIV-1)
Cc1ccc(Cl)cc1NC(=S)NCCc1c[nH]c2ccccc12 [Compound 26, 1-(2-(1H-Indol-3-yl)ethyl)-3-(3-chloro-6-methylphenyl)thiourea] | showed activity | 15 ± 1.2 µM | > 12 µM | > 17 µM | > 17 µM | > 12 µM | > 17 µM | > 17 µM | > 17 µM | > 17 µM | 163 to 165 °C | 45 µM | 42 µM | 12 µM | 17 µM | > 45 µM
S=C(NCCc1c[nH]c2ccccc12)NCc1ccccc1 [Compound 10, 1-(2-(1H-Indol-3-yl)ethyl)-3-benzylthiourea] | – | > 100 µM | > 52 µM | 30 ± 2.4 µM | > 100 µM | > 52 µM | > 100 µM | > 100 µM | > 100 µM | > 100 µM | – | 78 µM | > 100 µM | 52 µM | > 100 µM | > 78 µM
CCCCc1ccc(NC(=S)NCCc2c[nH]c3ccccc23)c(C)c1 [Compound 27, 1-(2-(1H-Indol-3-yl)ethyl)-3-(4-butyl-2-methylphenyl)thiourea] | – | > 11 µM | > 9.5 µM | > 12 µM | > 12 µM | > 9.5 µM | > 12 µM | > 12 µM | > 12 µM | > 12 µM | 172 to 174 °C | 45 µM | 11 µM | 9.5 µM | 12 µM | > 45 µM
Fc1ccc(NC(=S)NCCc2c[nH]c3ccccc23)cc1 [Compound 17, 1-(2-(1H-Indol-3-yl)ethyl)-3-(4-fluorophenyl)thiourea] | – | > 53 µM | > 30 µM | > 53 µM | > 53 µM | > 30 µM | > 53 µM | > 53 µM | > 53 µM | > 53 µM | – | 44 µM | 53 µM | 30 µM | 53 µM | > 44 µM
Fc1ccc(NC(=S)NCCc2c[nH]c3ccccc23)cc1Cl [Compound 28, 1-(2-(1H-Indol-3-yl)ethyl)-3-(3-chloro-4-fluorophenyl)thiourea] | showed activity | 13 ± 1.2 µM | > 30 µM | 20 ± 2.1 µM | > 32 µM | > 30 µM | > 32 µM | > 32 µM | > 32 µM | > 32 µM | 162 to 164 °C | 45 µM | 37 µM | 30 µM | 32 µM | > 45 µM
S=C(NCCc1c[nH]c2ccccc12)NC1CCCCC1 [Compound 9, 1-(2-(1H-Indol-3-yl)ethyl)-3-cyclohexylthiourea] | – | > 55 µM | > 13 µM | > 14 µM | > 14 µM | > 13 µM | > 14 µM | > 14 µM | > 14 µM | > 14 µM | – | 49 µM | 55 µM | 13 µM | 14 µM | > 49 µM
S=C(NCCc1c[nH]c2ccccc12)Nc1ccccc1 [Compound 1, 1-(2-(1H-Indol-3-yl)ethyl)-3-phenylthiourea] | – | > 100 µM | > 48 µM | > 64 µM | > 64 µM | > 48 µM | > 64 µM | > 64 µM | > 64 µM | > 64 µM | – | 31 µM | > 100 µM | 48 µM | 64 µM | > 31 µM
S=C(NCCc1c[nH]c2ccccc12)Nc1cccc(Br)c1 [Compound 7, 1-(2-(1H-Indol-3-yl)ethyl)-3-(3-bromophenyl)thiourea] | showed activity | 20 ± 2 µM | > 10 µM | > 12 µM | > 12 µM | > 10 µM | > 12 µM | > 12 µM | > 12 µM | > 12 µM | 152 to 154 °C | 45 µM | 55 µM | 10 µM | 12 µM | > 45 µM
Fc1cccc(NC(=S)NCCc2c[nH]c3ccccc23)c1 [Compound 12, 1-(2-(1H-Indol-3-yl)ethyl)-3-(3-fluorophenyl)thiourea] | – | > 49 µM | > 16 µM | > 60 µM | > 60 µM | > 16 µM | > 60 µM | > 60 µM | > 60 µM | > 60 µM | 162 to 164 °C | 47 µM | 49 µM | 16 µM | 60 µM | > 47 µM
C[C@@]1(O)[C@H](O)[C@@H](CO)O[C@H]1n1ccc(N)nc1=O [2′-C-methyl-cytidine, 2′-C-methylcytidine, reference compound] | – | – | – | 18 ± 0.9 µM | 7.3 ± 0.4 µM | 10 ± 1.2 µM | – | – | – | – | – | – | – | > 100 µM | > 100 µM | –
O=C(NC(=S)NCCc1c[nH]c2ccccc12)c1ccccc1 [Compound 5, 1-(2-(1H-Indol-3-yl)ethyl)-3-benzoylthiourea] | showed activity | 20 ± 1.5 µM | > 34 µM | > 29 µM | > 29 µM | > 34 µM | > 29 µM | > 29 µM | > 29 µM | > 29 µM | – | 38 µM | 67 µM | 34 µM | 29 µM | > 38 µM
Cc1ccc(NC(=S)NCCc2c[nH]c3ccccc23)cc1Cl [Compound 23, 1-(2-(1H-Indol-3-yl)ethyl)-3-(3-chloro-4-methylphenyl)thiourea] | – | > 25 µM | > 10 µM | > 17 µM | > 17 µM | > 10 µM | > 17 µM | > 17 µM | > 17 µM | > 17 µM | 161 to 163 °C | 44 µM | 25 µM | 10 µM | 17 µM | > 44 µM
COc1c(C)c2c(c(O)c1C/C=C(\C)CCC(=O)O)C(=O)OC2 [Mycophenolic acid, mycophenolic acid, reference compound] | – | – | – | – | – | – | – | – | 1.5 ± 0.2 µM | – | – | – | – | – | 13 µM | –
Nc1nc2c(ncn2COCCO)c(=O)[nH]1 [Acycloguanosine, acycloguanosine, reference compound] | – | – | – | – | – | – | – | – | – | 3 ± 0.2 µM | – | – | – | – | > 100 µM | –
S=C(NCCc1c[nH]c2ccccc12)Nc1ccc(Cl)cc1 [Compound 4, 1-(2-(1H-Indol-3-yl)ethyl)-3-(4-chlorophenyl)thiourea] | – | > 100 µM | > 47 µM | > 55 µM | > 55 µM | > 47 µM | > 55 µM | > 55 µM | > 55 µM | > 55 µM | – | 45 µM | > 100 µM | 47 µM | 55 µM | > 45 µM
